The source of these data is patent EP0369079A1, “Pharmaceutical compositions with anti-cancer activity and method for the treatment of cancer” (priority 1988, dated 1990).

The nature of series [1]: L-ascorbic acid in combination with other aromatic aldehydes or derivatives (synergy check). It counts as cell-based. Conditions: used in combination with L-ascorbic acid.
The test system of series [2] is NHIK 3025 cells. Briefly: Rate of protein synthesis ([3H]valine incorporation related to [14C] protein label). The class given is cell-based, Human. The following applies: Table 6, control 4.5. How it is done: Human cells of the established line NHIK 3025, originating from a cervical carcinoma in situ (Nordbye, K., and Oftebro, R. Exp. Cell Res., 58:458, l969), Oftebro, R., and Nordbye, K., Exp. Cell Res., 58:459-460, 1969) were cultivated in Medium E2a (Puck, T.T. et al., J. Exp. Med., 106: 145-165, 1957) supplemented with 20% human and 10% horse serum (Grand Island Biological Co.). The cells are grown as monolayers in tissue culture flasks. […] The cells were kept in continuous exponential growth by frequent reculturing, i.e. every second and third day.
The rate of protein synthesis was calculated as described in Rønning, ø. W. et al., J. Cell Physiol., 107: 47-57, 1981. Briefly, cellular protein was labelled to saturation during a 2-day preincubation with (¹⁴C)valine of constant specific radioactivity (0.5 Ci/mol) prior to the experiment. This was achieved by using a high concentration of valine so that the dilution of (¹⁴C) valine by intracellular valine and by proteolytically generated valine will be negligible (Rønning, ø. W., et al. Exp. Cell Res. 123:63-72, 1979), thus keeping the specific radioactivity at a constant level. The rate of protein synthesis was calculated from the incorporation of (³H) valine of constant specific activity. The incorporation measurements were related to the total of (¹⁴C) radioacitivty in protein at the beginning of the respective measurement periods and expressed as the percentage per hour (Rønning, ø. W. et al, J. Cell, Physiol. 107:47-57, 1981).
From earlier studies, it is known that determination of protein synthesis inhibition is a useful measure of anti-cancer activity. In the present study we have tested the protein synthesis inhibition as induced by both BASS and Asc alone, and by the two active agents in simultaneous combination. The experiment also included samples treated similarly, but where BASS-d₁ was used instead of BASS.

Series [3] relates to NHIK 3025 cells. The series can be described thus: Cell survival (colony formation) after drug treatment. It counts as cell-based, Human. The following applies: for Surviving fraction: 1440 min. How it is done: The cells are grown as monolayers in tissue culture flasks. […] The cells were kept in continuous exponential growth by frequent reculturing, i.e. every second and third day.
For measurment of cell survival, appropriate numbers of cells were seeded in plastic Petri dishes (⌀ = 5 cm). The number of cells seeded into each dish was adjusted such that the number of surviving cells would be approximately 150 per dish. While exponentially growing (asynchronous) cells were trypsinized before seeding, synchronized cells were seeded immediately after selection. […] After the desired time of treatment, the drug-containing medium was removed, and fresh medium was added. The dishes were rinsed once with the same medium as was to be added on addition or removal of drug. After 10 to 12 days at 37°C in a CO₂ incubator, the cells were fixed in ethanol and stained with methylene blue before the colonies were counted.
The cytotoxic effect of BASS and of ascorbic acid (Asc) used either alone or in simultaneous combination was measured on asynchronous, exponentially growing NHIK 3025 cells.

Where [4] appears, read: 1.0 mM BASS or BASS-d1 alone (0 mM Asc), per cent of the total cellular protein per hour.
[5] abbreviates: 3.2 mM BASS or BASS-d1 alone (0 mM Asc).
Setting [6] is: Homo sapiens, NHIK3025, 24 h, Table 4, 24 hours, 1.0 mM BASS or BASS-d1 alone (0 mM Asc), read-out: Surviving fraction.

Where a name gives a salt, the structure may show the parent alone. Read-outs that look alike come from different tables or passages of the source.

For the molecule `OC1O[C@@H]2COC(c3ccccc3)O[C@H]2[C@H](O)[C@H]1O` (stereo partly drawn) [4,6-O-benzylidene glucose], in series [1], the synergistic effects entry was “without observing any synergistic effects”.

For `O=C1O[C@H]([C@@H](O)CO)C(O)=C1O` [Asc, L-ascorbic acid, reference compound], the figures for the “rate of protein synthesis” value in the series with NHIK 3025 cells [2] (1.0 mM Asc alone) and with NHIK 3025 cells [2] (3.2 mM Asc alone) were 2.96±0.04 %/h and 1.5±0.2 %/h, respectively. Also, the viability at 1600 µM in the series with NHIK 3025 cells [3] (Homo sapiens, NHIK3025, 4 h, Table 3, 4 hours, 1.6 mM Asc alone, read-out: Surviving fraction) was found to be 91 ± 1%; with NHIK 3025 cells [3] (Homo sapiens, NHIK3025, 24 h, Table 1, 24 hours, 1.6 mM Asc alone (0 mM BASS), read-out: Surviving fraction), 61 ± 4%; with NHIK 3025 cells [3] (Homo sapiens, NHIK3025, Table 2 (further experiment, similar to Table 1), 1.6 mM Asc alone, read-out: Surviving fraction), 54 ± 2%. The viability at 3200 µM in the series on NHIK 3025 cells [3] (Homo sapiens, NHIK3025, 4 h, Table 3, 4 hours, 3.2 mM Asc alone, read-out: Surviving fraction) turned out to be 27 ± 3%; with NHIK 3025 cells [3] (Homo sapiens, NHIK3025, 24 h, Table 1, 24 hours, 3.2 mM Asc alone (0 mM BASS), read-out: Surviving fraction), 11 ± 0.8%; in the series on NHIK 3025 cells [3] (Homo sapiens, NHIK3025, Table 2 (further experiment, similar to Table 1), 3.2 mM Asc alone, read-out: Surviving fraction), 8.7 ± 1%. Also, the viability at 800 µM in the series with NHIK 3025 cells [3] (Homo sapiens, NHIK3025, 24 h, Table 1, 24 hours, 0.8 mM Asc alone (0 mM BASS), read-out: Surviving fraction) is 91 ± 9%; with NHIK 3025 cells [3] (Homo sapiens, NHIK3025, Table 2 (further experiment, similar to Table 1), 0.8 mM Asc alone, read-out: Surviving fraction) it was 95 ± 5%. The viability at 1200 µM in the series on NHIK 3025 cells [3] (Homo sapiens, NHIK3025, 24 h, Table 1, 24 hours, 1.2 mM Asc alone (0 mM BASS), read-out: Surviving fraction) turned out to be 80%; in the series on NHIK 3025 cells [3] (Homo sapiens, NHIK3025, Table 2 (further experiment, similar to Table 1), 1.2 mM Asc alone, read-out: Surviving fraction) it was 69 ± 2%. The viability at 2400 µM with NHIK 3025 cells [3] (Homo sapiens, NHIK3025, 24 h, Table 1, 24 hours, 2.4 mM Asc alone (0 mM BASS), read-out: Surviving fraction) is 40 ± 3%; in the series with NHIK 3025 cells [3] (Homo sapiens, NHIK3025, Table 2 (further experiment, similar to Table 1), 2.4 mM Asc alone, read-out: Surviving fraction), 29 ± 1%. In the series with NHIK 3025 cells [3] (Table 1, 24 hours, 1.2 mM Asc alone (0 mM BASS), 1200 µM), the Surviving fraction is 0.80±0.09.

`O=C1O[C@H]([C@@H]2COC(c3ccccc3)O2)C(O)=C1O` (stereo partly drawn) [BASS, sodium salt of 5,6-O-benzylidene-L-ascorbic acid]: the “rate of protein synthesis” value is recorded as 3.06±0.02 %/h in the series on NHIK 3025 cells [2] (setting [4]) and 1.71±0.05 %/h in the series on NHIK 3025 cells [2] (setting [5]). Besides, the viability at 1600 µM with NHIK 3025 cells [3] (Homo sapiens, NHIK3025, 4 h, Table 3, 4 hours, 1.6 mM BASS alone, read-out: Surviving fraction) is 80 ± 5%; with NHIK 3025 cells [3] (Homo sapiens, NHIK3025, 24 h, Table 1, 24 hours, 1.6 mM BASS alone (0 mM Asc), read-out: Surviving fraction), 52 ± 2%; in the series with NHIK 3025 cells [3] (Homo sapiens, NHIK3025, 24 h, read-out: Surviving fraction), 24 ± 3%; in the series with NHIK 3025 cells [3] (Homo sapiens, NHIK3025, Table 2 (further experiment, similar to Table 1), 1.6 mM BASS alone, read-out: Surviving fraction), 44 ± 3%. Further, the viability at 3200 µM in the series on NHIK 3025 cells [3] (Homo sapiens, NHIK3025, 4 h, Table 3, 4 hours, 3.2 mM BASS alone, read-out: Surviving fraction) amounted to 36 ± 3%; in the series with NHIK 3025 cells [3] (Homo sapiens, NHIK3025, 24 h, Table 1, 24 hours, 3.2 mM BASS alone (0 mM Asc), read-out: Surviving fraction), 1.1 ± 0.1%; in the series on NHIK 3025 cells [3] (Homo sapiens, NHIK3025, Table 2 (further experiment, similar to Table 1), 3.2 mM BASS alone, read-out: Surviving fraction) it was 3.9 ± 0.4%. Further, the viability at 1000 µM came to 76% in the series with NHIK 3025 cells [3] (Homo sapiens, NHIK3025, 24 h, Table 1, 24 hours, 1.0 mM BASS alone (0 mM Asc), read-out: Surviving fraction); 62 ± 5% in the series on NHIK 3025 cells [3] (setting [6]); 63 ± 8% with NHIK 3025 cells [3] (Homo sapiens, NHIK3025, Table 2 (further experiment, similar to Table 1), 1.0 mM BASS alone, read-out: Surviving fraction). In addition, the viability at 500 µM in the series with NHIK 3025 cells [3] (Homo sapiens, NHIK3025, Table 2 (further experiment, similar to Table 1), 0.5 mM BASS alone, read-out: Surviving fraction) is 91 ± 7%. The Surviving fraction in the series on NHIK 3025 cells [3] (Table 1, 24 hours, 1.0 mM BASS alone (0 mM Asc), 1000 µM) is 0.76±0.02.

Take `[2H]C1(c2ccccc2)OC[C@@H]([C@H]2OC(=O)C(O)=C2O)O1` (stereo partly drawn) [BASS-d₁, sodium salt of 5,6-O-benzylidene-L-ascorbic acid deuterated at the 1-position of the aldehyde group of the benzylidene moiety]: the “rate of protein synthesis” value in the series with NHIK 3025 cells [2] (setting [4]) was 3.03±0.16 %/h; in the series with NHIK 3025 cells [2] (setting [5]), 2.00±0.03 %/h. In the series on NHIK 3025 cells [3] (setting [6]), the viability at 1000 µM was 55 ± 5%.
